Laboratory results as given in patent US20230000995A1, “DOLASTATIN 10 ANALOG” (Ariel Scientific Innovations Ltd., priority 2020, published 2023).
Where two headings read alike, the source gives them in different places. Where a SMILES comes first, the peptide text is derived from it. [ ]: non-standard residue; d: D form. Dolaproine = CO[C@@H]([C@@H]1CCCN1)[C@@H](C)C(=O)O; Dil = CC[C@H](C)[C@H](NC)[C@@H](CC(=O)O)OC; Phe(ol) = N[C@H](CO)Cc1ccccc1; NMeV = CN[C@H](C(=O)O)C(C)C

Experiments:
[1] = tested on: WM266-4 (malignant melanoma cell line); assay: In vitro cytotoxicity, XTT assay, 8 days incubation; assay type: cell-based; conditions: read-out: IC50 MW266 (8 days)
Text: (§1) The exemplary dolastatin 10 analog, Dolas-Ol, was subjected to an in vitro assay to test its cytotoxicity towards two cancerous cell lines: WM266-4 (malignant melanoma cell line)) and HCT116 (human colon cancer cell line). The study was design to assess the activity of a dolastatin 10 analog, according to some embodiments of the present invention, compared to other dolastatin 10 derivatives known in the art, Auristatin F, Auristatin F-Ol and Dolastatin-CO2H.
(§2) All samples contained DMSO at final concentration<0.05%. Cells cultures were initiated in microplate wells at a concentration of 2-4×10^4 cells/well and the cells were allowed to adhere for 24 h incubation period. At this time the cells were washed, fresh medium containing different concentrations of the tested substances were added and the cells were incubated for additional 8 days. The medium was then removed, all the wells were washed with PBS and cultured for 24 hrs in fresh medium without drugs. The cells were washed again and given a fresh medium containing the XTT reagent and re-incubated for 2-4 h. Absorbence in the wells was measured with a TECAN Infinite M200 ELISA reader at both 480 and 680 nm e, the latter being the background absorbance. The absorbencies were normalized to the absorbance of cells grown in medium and solvent. All the tests were repeated three times in quadruplicates.

[2] = tested on: HCT116 (human colon cancer cell line); assay: as above; assay type: cell-based; conditions: read-out: IC50 HC116 (8 days)
Text: as §1, §2

tubulin [3] = conditions: cited from earlier work
[4] = tested on: L1210 murine leukemia cells; conditions: L1210 murine leukemia cells in culture; read-out: IC50 value for cell growth; cited from earlier work
tubulin [5] = conditions: purified tubulin in glutamate; read-out: IC50 for the polymerization of purified tubulin in glutamate; cited from earlier work
[6] = tested on: TRAMP C2 cells that overexpressed SSTR2; assay: Growth inhibition by Dolas-Ol conjugates, XTT assay; assay type: cell-based; conditions: 1 μM, 3 hours exposure, then 8 days
Description: (§3) Table 2 presents the growth inhibition values of octreotide amide, conjugates 8b-d in the cell cultures calculated according to the concentration of 1 μM. The calculation for all values is provided relative to control 100% of GI (for all values, p<0.01).

[7] = tested on: HC116 cells that overexpressed SSTR2; assay: as above; assay type: cell-based; conditions: 1 μM, 3 hours exposure, then 8 days
Description: as §3

[8] = tested on: H1299 cells that overexpressed SSTR2; assay: as above; assay type: cell-based; conditions: 1 μM, 3 hours exposure, then 8 days
Description: as §3

[9] = tested on: cell lines with overexpressed SSTR2 versus HEK; conditions: 1 μM; SSTR2 overexpressing cell lines versus HEK with low expression
Description: HC116, H1299 and TRAMP C2 cells that overexpressed SSTR2 were incubated for 3 hours with 1 μM doses of the conjugates, according to some embodiments of the present invention, and then the cells were washed and proceed for incubation for the following 8 days. At the end of incubation for 8 days, the metabolic activities of cells were measured using the XTT assay.

[10] = tested on: HEK (low SSTR2 expression); assay: Growth inhibition by Dolas-Ol conjugates, XTT assay, negative control cells; assay type: cell-based; conditions: 1 μM, 3 hours exposure, then 8 days
Description: as §3

CC[C@H](C)[C@@H]([C@@H](CC(=O)N1CCC[C@H]1[C@H](OC)[C@@H](C)C(=O)N[C@@H](Cc1ccccc1)C(=O)O)OC)N(C)C(=O)[C@@H](NC(=O)[C@@H](NC)C(C)C)C(C)C (H-[NMeV]V[Dil][Dolaproine]F-OH)
IC50 ([1]; Homo sapiens, WM 266-4, 192 h): 0.01559 ± 3e-05 µM
IC50 ([2]; Homo sapiens, HCT-116, 192 h): 0.01827 ± 6e-05 µM

CC[C@H](C)[C@@H]([C@@H](CC(=O)N1CCC[C@H]1[C@H](OC)[C@@H](C)C(=O)N[C@H](CO)Cc1ccccc1)OC)N(C)C(=O)[C@@H](NC(=O)[C@@H](NC)C(C)C)C(C)C [Auristatin F- O1] (H-[NMeV]V[Dil][Dolaproine][Phe(ol)])
IC50 ([1]; Homo sapiens, WM 266-4, 192 h): 0.05882 ± 5e-05 µM
IC50 ([2]; Homo sapiens, HCT-116, 192 h): 0.02971 ± 4e-05 µM

CC[C@H](C)[C@@H]([C@@H](CC(=O)N1CCC[C@H]1[C@H](OC)[C@@H](C)C(=O)N[C@@H](Cc1ccccc1)c1nccs1)OC)N(C)C(=O)[C@@H](NC(=O)[C@H](C(C)C)N(C)C)C(C)C [Dolastatin 10]
inhibition of the binding of radiolabeled vinblastine and vincristine to tubulin (tubulin [3]): strongest inhibitor
IC50 [4]: 0.0005 µM
IC50 (tubulin [5]): 1.2 µM

CC[C@H](C)[C@@H]([C@@H](CC(=O)N1CCC[C@H]1[C@H](OC)[C@@H](C)C(=O)N[C@@H](Cc1ccccc1)c1nc(C(=O)O)cs1)OC)N(C)C(=O)[C@@H](NC(=O)[C@H](C(C)C)N(C)C)C(C)C [Dolastatin- CO2H]
IC50 ([1]; Homo sapiens, WM 266-4, 192 h): 0.03175 ± 2e-05 µM
IC50 ([2]; Homo sapiens, HCT-116, 192 h): 0.0525 ± 3e-05 µM

C[C@@H](O)[C@H](NC(=O)[C@@H]1CSSC[C@H](NC(=O)[C@H](N)Cc2ccccc2)C(=O)N[C@@H](Cc2ccccc2)C(=O)N[C@H](Cc2c[nH]c3ccccc23)C(=O)N[C@@H](CCCCN)C(=O)N[C@@H]([C@@H](C)O)C(=O)N1)C(N)=O [Octreotide amide]
growth inhibition, TRAMP C2-8 days [6]: 6.5%
growth inhibition, HC116-8 days [7]: 6.1%
growth inhibition, H1299-8 days [8]: 8.4%
cytotoxicity (in words) [9]: not cytotoxic
growth inhibition, HEK as negative control [10]: 7.9%

COc1cc2cc(c1Cl)N(C)C(=O)C[C@H](OC(=O)[C@H](C)N(C)C(C)=O)[C@]1(C)O[C@H]1[C@H](C)[C@@H]1C[C@@](O)(NC(=O)O1)[C@H](OC)/C=C/C=C(\C)C2 [maytansine]
IC50 [4]: 0.0005 µM
IC50 (tubulin [5]): 3.5 µM

C=C(C)[C@@H]1NC(=O)[C@@H](NC)[C@@H](O)c2cc(Cl)c(O)c(c2)O[C@](C)(CC)[C@@H](C(=O)N2CC=C[C@H]2C(=O)N/C(C(=O)N/C(=C/C(=O)O)C(=O)O)=C(\C)CC)NC1=O [phomopsin A]
IC50 [4]: 7 µM
IC50 (tubulin [5]): 1.4 µM

CO[C@@H](/C(C)=C/C=C/C(C)=C/c1coc(C)n1)[C@@H](C)[C@@H]1C[C@H](O)[C@@]2(C)O[C@@H]2/C=C/[C@@H](C)[C@H]2C[C@H](CC(=O)O2)C[C@@H]2O[C@H]2C(=O)O1 [rhizoxin]
IC50 [4]: 0.001 µM
IC50 (tubulin [5]): 6.8 µM

CC[C@]1(O)C[C@@H]2CN(CCc3c([nH]c4ccccc34)[C@@](C(=O)OC)(c3cc4c(cc3OC)N(C)[C@H]3[C@@](O)(C(=O)OC)[C@H](OC(C)=O)[C@]5(CC)C=CCN6CC[C@]43[C@@H]65)C2)C1 [vinblastine]
IC50 [4]: 0.02 µM

(2S)-2-((S)-2-(dimethylamino)-3-methylbutanamido)-N-((3R,4S,5S)-1-((2S)-2-((1R,2R)-3-((1-(5-(hydroxymethyl)thiazol-2-yl)-2-phenylethyl)amino)-1-methoxy-2-methyl-3-oxopropyl)pyrrolidin-1-yl)-3-methoxy-5-methyl-1-oxoheptan-4-yl)-N,3-dimethylbutanamide [Dolas-O1]
IC50 [1]: 0.00224 ± 3e-05 µM
IC50 [2]: 0.00367 ± 3e-05 µM
